The values that follow come from publication PMC6851183, “Computational design and characterization of nanobody-derived peptides that stabilize the active conformation of the β2-adrenergic receptor (β2-AR)” (Scientific Reports, 2019).

Ends that are not written are not given here.

The target of this assay is T1, β2-AR/RLuc8 with GFP^2/β-arr2 Arg393Glu, Arg395Glu (Homo sapiens, UniProt P07550).
T1 construct: expressed in transfected cells; host or cells: HEK-293
In words: BRET^2-based β-arrestin 2 recruitment assay. It counts as cell-based.

T1 sequence (P07550 whole entry, change not shown): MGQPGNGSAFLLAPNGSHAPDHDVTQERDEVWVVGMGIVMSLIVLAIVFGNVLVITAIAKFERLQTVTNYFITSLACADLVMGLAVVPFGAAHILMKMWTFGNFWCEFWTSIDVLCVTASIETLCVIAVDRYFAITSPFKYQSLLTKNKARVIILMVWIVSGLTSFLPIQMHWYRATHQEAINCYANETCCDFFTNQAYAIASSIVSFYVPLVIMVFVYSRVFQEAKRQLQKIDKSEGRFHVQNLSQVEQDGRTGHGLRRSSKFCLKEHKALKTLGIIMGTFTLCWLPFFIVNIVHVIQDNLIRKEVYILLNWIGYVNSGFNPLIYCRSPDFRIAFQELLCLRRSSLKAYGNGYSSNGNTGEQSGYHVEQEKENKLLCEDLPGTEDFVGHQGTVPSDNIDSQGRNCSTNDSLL

As to EDTAVYYCNANWDLLSD [P3], the EC50 was roughly 1 nM. Further, for the setting “homogenized or permeabilized cells, 10 µM isoproterenol, P3 10^−12 to 10^−5 M, dose-dependent, maximum”, the “reduction in isoproterenol-induced BRET^2 signal” value is “up to 10%”.
